Reference: PubChem BioAssay (NCI)
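The concentration for 50% growth inhibition is given as GI50. The concentration for full growth arrest is given as TGI.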

Legend:
Experiment in all cases: NCI anticancer screen, dose series, 384-well format
[1] = test system: A498 renal
[2] = test system: A549 NSCLC
[3] = test system: ACHN renal
[4] = test system: CAKI-1 renal
[5] = test system: CCRF-CEM leukemia
[6] = test system: COLO 205 colon
[7] = test system: HCC-2998 colon
[8] = test system: HCT-116 colon
[9] = test system: HCT-15 colon
[10] = test system: HOP-62 NSCLC
[11] = test system: HS 578T breast
[12] = test system: HT29 colon
[13] = test system: IGROV1 ovarian
[14] = test system: K-562 leukemia
[15] = test system: KM12 colon
[16] = test system: LOX IMVI melanoma
[17] = test system: M14 melanoma
[18] = test system: MALME-3M melanoma
[19] = test system: MCF7 breast
[20] = test system: MDA-MB-435 melanoma
[21] = test system: MDA-MB-468 breast
[22] = test system: MOLT-4 leukemia
[23] = test system: NCI-H226 lung
[24] = test system: NCI-H322M lung
[25] = test system: NCI-H460 NSCLC
[26] = test system: NCI/ADR-RES ovarian
[27] = test system: OVCAR-4 ovarian
[28] = test system: OVCAR-5 ovarian
[29] = test system: OVCAR-8 ovarian
[30] = test system: RPMI-8226 leukemia
[31] = test system: RXF 393 renal
[32] = test system: SF-268 CNS
[33] = test system: SF-295 CNS
[34] = test system: SF-539 CNS
[35] = test system: SK-MEL-2 melanoma
[36] = test system: SK-MEL-5 melanoma
[37] = test system: SK-OV-3 ovarian
[38] = test system: SN12C renal
[39] = test system: SNB-19 CNS
[40] = test system: SNB-75 CNS
[41] = test system: SW-620 colon
[42] = test system: T-47D breast
[43] = test system: TK-10 renal
[44] = test system: U251 glioblastoma
[45] = test system: UACC-257 melanoma
[46] = test system: UACC-62 melanoma
[47] = test system: UO-31 renal

`C[C@@H](Nc1nc(N[C@H](C)C(F)(F)F)nc(-c2cccc(Cl)n2)n1)C(F)(F)F` gave a GI50 [1] of 32.9 µM, a TGI [1] greater than 72.4 µM and a GI50 [2] greater than 51.8 µM. It also gave a TGI [2] greater than 83 µM, a GI50 [3] greater than 100 µM and a TGI [3] greater than 100 µM. For the same compound, the GI50 [4] was 33.6 µM, the TGI [4] was greater than 73.8 µM and the GI50 [5] was greater than 100 µM. For the same compound, the TGI [5] was greater than 100 µM, the GI50 [6] was greater than 100 µM and the TGI [6] was greater than 100 µM. The GI50 [7] was greater than 80.1 µM, the TGI [7] was greater than 100 µM and the GI50 [8] was 89.3 µM. It also gave a TGI [8] greater than 100 µM, a GI50 [9] greater than 100 µM and a TGI [9] greater than 100 µM. The GI50 [10] was 28.5 µM, the TGI [10] was greater than 65.4 µM and the GI50 [11] was 21.1 µM. It also gave a TGI [11] of 63.2 µM, a GI50 [12] greater than 100 µM and a TGI [12] greater than 100 µM. For the same compound, the GI50 [13] was greater than 100 µM, the TGI [13] was greater than 100 µM and the GI50 [14] was greater than 100 µM. For the same compound, the TGI [14] was greater than 100 µM, the GI50 [15] was greater than 91.7 µM and the TGI [15] was greater than 100 µM. For the same compound, the GI50 [16] was greater than 100 µM, the TGI [16] was greater than 100 µM and the GI50 [17] was greater than 100 µM. The TGI [17] was greater than 100 µM, the GI50 [18] was greater than 66 µM and the TGI [18] was greater than 100 µM. The GI50 [19] was 14.5 µM, the TGI [19] was greater than 100 µM and the GI50 [20] was greater than 77.9 µM. For the same compound, the TGI [20] was greater than 100 µM, the GI50 [21] was 20.9 µM and the TGI [21] was greater than 90.2 µM. The GI50 [22] was greater than 100 µM, the TGI [22] was greater than 100 µM and the GI50 [23] was 84.7 µM. For the same compound, the TGI [23] was greater than 100 µM, the GI50 [24] was greater than 100 µM and the TGI [24] was greater than 100 µM. For the same compound, the GI50 [25] was 36.4 µM, the TGI [25] was greater than 100 µM and the GI50 [26] was greater than 82.3 µM. For the same compound, the TGI [26] was greater than 100 µM, the GI50 [27] was 21.7 µM and the TGI [27] was 55 µM. It also gave a GI50 [28] greater than 100 µM, a TGI [28] greater than 100 µM and a GI50 [29] of 47.2 µM. For the same compound, the TGI [29] was greater than 100 µM, the GI50 [30] was greater than 75.8 µM and the TGI [30] was greater than 100 µM. The GI50 [31] was 24.2 µM, the TGI [31] was 58.8 µM and the GI50 [32] was 39.6 µM. It also gave a TGI [32] greater than 100 µM, a GI50 [33] greater than 83.8 µM and a TGI [33] greater than 100 µM. It also gave a GI50 [34] greater than 69.1 µM, a TGI [34] greater than 100 µM and a GI50 [35] of 14.6 µM. The TGI [35] was 30.2 µM, the GI50 [36] was 28.2 µM and the TGI [36] was greater than 100 µM. The GI50 [37] was greater than 100 µM, the TGI [37] was greater than 100 µM and the GI50 [38] was greater than 62.6 µM. It also gave a TGI [38] greater than 100 µM, a GI50 [39] greater than 82.4 µM and a TGI [39] greater than 100 µM. The GI50 [40] was 29.5 µM, the TGI [40] was greater than 75.4 µM and the GI50 [41] was greater than 49.5 µM. The TGI [41] was greater than 70.6 µM, the GI50 [42] was greater than 84.3 µM and the TGI [42] was greater than 100 µM. For the same compound, the GI50 [43] was greater than 52.4 µM, the TGI [43] was greater than 90.1 µM and the GI50 [44] was 40 µM. The TGI [44] was greater than 100 µM, the GI50 [45] was 98.4 µM and the TGI [45] was greater than 100 µM. It also gave a GI50 [46] of 38.6 µM, a TGI [46] greater than 76.9 µM and a GI50 [47] greater than 100 µM. It also gave a TGI [47] greater than 100 µM.

With `Cc1cc(F)c(C(=O)Nc2cccc(-c3nncn3C(C)C)n2)cc1-n1cnc(C2CC2)c1` the GI50 [1] was 10.1 µM, the TGI [1] was greater than 76.6 µM and the GI50 [2] was 8.05 µM. For the same compound, the TGI [2] was 66.6 µM, the GI50 [3] was 11.5 µM and the TGI [3] was 34.8 µM. It also gave a GI50 [4] of 12.6 µM, a TGI [4] of 31.4 µM and a GI50 [5] of 7.73 µM. For the same compound, the TGI [5] was 20.2 µM, the GI50 [6] was 3.83 µM and the TGI [6] was 12.4 µM. The GI50 [7] was 16.7 µM, the TGI [7] was 57.2 µM and the GI50 [8] was 17.6 µM. It also gave a TGI [8] of 71.1 µM, a GI50 [9] of 17.6 µM and a TGI [9] of 45.3 µM. It also gave a GI50 [10] of 8.04 µM, a TGI [10] of 29.3 µM and a GI50 [11] of 8.3 µM. It also gave a TGI [11] of 35.2 µM, a GI50 [12] of 22 µM and a TGI [12] greater than 94.4 µM. For the same compound, the GI50 [13] was 9.78 µM, the TGI [13] was 40.5 µM and the GI50 [14] was 5.52 µM. For the same compound, the TGI [14] was 21.3 µM, the GI50 [15] was 15.6 µM and the TGI [15] was 30.6 µM. It also gave a GI50 [16] of 13.7 µM, a TGI [16] of 28.9 µM and a GI50 [17] of 14.5 µM. For the same compound, the TGI [17] was 28.7 µM, the GI50 [18] was 15.2 µM and the TGI [18] was 35 µM. The GI50 [19] was 12.3 µM, the TGI [19] was 25.9 µM and the GI50 [20] was 13.2 µM. It also gave a TGI [20] of 30 µM, a GI50 [21] of 3.39 µM and a TGI [21] of 10.5 µM. The GI50 [22] was 5.69 µM, the TGI [22] was 18.1 µM and the GI50 [23] was 12.6 µM. The TGI [23] was 31.4 µM, the GI50 [24] was 18.8 µM and the TGI [24] was 44.6 µM. The GI50 [25] was 12.9 µM, the TGI [25] was 43 µM and the GI50 [26] was 11.1 µM. It also gave a TGI [26] of 23.6 µM, a GI50 [27] of 17.2 µM and a TGI [27] of 38.5 µM. It also gave a GI50 [28] of 23.9 µM, a TGI [28] greater than 80.5 µM and a GI50 [29] of 12 µM. For the same compound, the TGI [29] was 25.6 µM, the GI50 [30] was 2.09 µM and the TGI [30] was 5.9 µM. The GI50 [31] was 10.3 µM, the TGI [31] was 25.2 µM and the GI50 [32] was 15 µM. For the same compound, the TGI [32] was 47.7 µM, the GI50 [33] was 15.4 µM and the TGI [33] was 98.9 µM. It also gave a GI50 [34] of 14.5 µM, a TGI [34] of 42.6 µM and a GI50 [35] of 19.9 µM. It also gave a TGI [35] of 35.5 µM, a GI50 [36] of 6.96 µM and a TGI [36] of 19.3 µM. It also gave a GI50 [37] of 17.4 µM, a TGI [37] of 38.6 µM and a GI50 [38] of 19.4 µM. The TGI [38] was greater than 93.6 µM, the GI50 [39] was 22.6 µM and the TGI [39] was greater than 100 µM. The GI50 [40] was 13.5 µM, the TGI [40] was 27.6 µM and the GI50 [41] was 13.9 µM. The TGI [41] was 32.3 µM, the GI50 [42] was 3.42 µM and the TGI [42] was 14.6 µM. The GI50 [43] was 14.8 µM, the TGI [43] was greater than 68.2 µM and the GI50 [44] was 11.9 µM. For the same compound, the TGI [44] was greater than 81.6 µM, the GI50 [45] was 16.7 µM and the TGI [45] was 31.2 µM. The GI50 [46] was 12.9 µM, the TGI [46] was 25.9 µM and the GI50 [47] was 10.4 µM. The TGI [47] was 23.7 µM.
